According to paper PMC9062259, “Mammalian Ddi2 is a shuttling factor containing a retroviral protease domain that influences binding of ubiquitylated proteins and proteasomal degradation” (The Journal of Biological Chemistry, 2022):

B1: His6-Ddi2 (natural protein, human, UniProt Q5TDH0 1-399, looked up)
chain: MLLTVYCVRRDLSEVTFSLQVDADFELHNFRALCELESGIPAAESQIVYAERPLTDNHRSLASYGLKDGDVVILRQKENADPRPPVQFPNLPRIDFSSIAVPGTSSPRQRQPPGTQQSHSSPGEITSSPQGLDNPALLRDMLLANPHELSLLKERNPPLAEALLSGDLEKFSRVLVEQQQDRARREQERIRLFSADPFDLEAQAKIEEDIRQQNIEENMTIAMEEAPESFGQVVMLYINCKVNGHPVKAFVDSGAQMTIMSQACAERCNIMRLVDRRWAGIAKGVGTQKIIGRVHLAQVQIEGDFLPCSFSILEEQPMDMLLGLDMLKRHQCSIDLKKNVLVIGTTGSQTTFLPEGELPECARLAYGAGREDVRPEEIADQELAEALQKSAEDAERQKP
notes: Ddi2, human, from a pET16b plasmid (gift from Klara Saskova); Collected from gel filtration at a molecular weight consistent with dimerization; also called His-Ddi2; purified Ddi2; source: E. coli BL21 RIL (DE3) Codon Plus, purified (Ni-NTA, Superdex gel filtration)

What was measured:
Ddi2 = molecular target: T1, Ddi2 (Homo sapiens, UniProt Q5TDH0); assay: Inhibition of cleavage of fluorescently labeled ubiquitylated NeD-sfGFP by purified His6-Ddi2 (SDS-PAGE, fluorescence imaging); type: biochemical
T1 construct: His6-Ddi2
T1 sequence (Q5TDH0 1-399): B1 chain

[1] = molecular target: the molecule itself; assay: SEC; His-Ddi2 after Ni-NTA on a Superdex 16/60 column in 25 mM Hepes-KOH pH 8, 40 mM potassium acetate, 10% glycerol, 1 mM DTT

Molecule | EC50 (Ddi2) [µM] | binding result [1]
Cc1c(O)cccc1C(=O)N[C@@H](CSc1ccccc1)[C@H](O)CN1C[C@H]2CCCC[C@H]2C[C@H]1C(=O)NC(C)(C)C [nelfinavir] | ~40 | 
B1 |  | binds
